# Oligonucleotides are written 5' to 3', each unit as a sugar letter and its base; * is a phosphorothioate linkage, no mark a phosphodiester; rarer units and linkages stand in square brackets, end groups in braces. Plain capitals give the bases only. Oligonucleotides are given in HELM: sugar(base)linkage, 5' to 3'; d 2'-deoxyribose, r ribose, m 2'-O-methylribose, p phosphate. ss, as = sense and antisense strand; d = 2'-deoxy (DNA); r = 2'-OH (RNA)
# Molecular target: Cacnb1 (rat)
# Experiment: reporter assay of Huesken 2005
# Details: siRNA
# Note: test concentration or dose not given here.
row,Substance,normalised inhibition (eCFP-eYFP dual reporter) [%]
1,RNA1{r(A)p.r(A)p.r(C)p.r(C)p.r(A)p.r(A)p.r(U)p.r(U)p.r(G)p.r(G)p.r(A)p.r(A)p.r(G)p.r(A)p.r(U)p.r(G)p.r(C)p.r(C)p.r(U)p.d(T)p.d(T)}|RNA2{r(A)p.r(G)p.r(G)p.r(C)p.r(A)p.r(U)p.r(C)p.r(U)p.r(U)p.r(C)p.r(C)p.r(A)p.r(A)p.r(U)p.r(U)p.r(G)p.r(G)p.r(U)p.r(U)p.d(C)p.d(T)}$$$RNA1{StrandType:ss}|RNA2{StrandType:as}$,50
2,RNA1{r(A)p.r(A)p.r(C)p.r(C)p.r(G)p.r(C)p.r(C)p.r(U)p.r(C)p.r(A)p.r(G)p.r(C)p.r(U)p.r(C)p.r(C)p.r(A)p.r(G)p.r(C)p.r(A)p.d(T)p.d(T)}|RNA2{r(U)p.r(G)p.r(C)p.r(U)p.r(G)p.r(G)p.r(A)p.r(G)p.r(C)p.r(U)p.r(G)p.r(A)p.r(G)p.r(G)p.r(C)p.r(G)p.r(G)p.r(U)p.r(U)p.d(T)p.d(T)}$$$RNA1{StrandType:ss}|RNA2{StrandType:as}$,46.2
3,RNA1{r(A)p.r(A)p.r(G)p.r(A)p.r(A)p.r(U)p.r(G)p.r(A)p.r(G)p.r(C)p.r(U)p.r(G)p.r(G)p.r(A)p.r(G)p.r(G)p.r(G)p.r(C)p.r(U)p.d(T)p.d(T)}|RNA2{r(A)p.r(G)p.r(C)p.r(C)p.r(C)p.r(U)p.r(C)p.r(C)p.r(A)p.r(G)p.r(C)p.r(U)p.r(C)p.r(A)p.r(U)p.r(U)p.r(C)p.r(U)p.r(U)p.d(A)p.d(T)}$$$RNA1{StrandType:ss}|RNA2{StrandType:as}$,54.2
4,RNA1{r(A)p.r(A)p.r(G)p.r(G)p.r(G)p.r(C)p.r(G)p.r(G)p.r(U)p.r(U)p.r(C)p.r(A)p.r(A)p.r(A)p.r(A)p.r(G)p.r(G)p.r(U)p.r(C)p.d(T)p.d(T)}|RNA2{r(G)p.r(A)p.r(C)p.r(C)p.r(U)p.r(U)p.r(U)p.r(U)p.r(G)p.r(A)p.r(A)p.r(C)p.r(C)p.r(G)p.r(C)p.r(C)p.r(C)p.r(U)p.r(U)p.d(T)p.d(C)}$$$RNA1{StrandType:ss}|RNA2{StrandType:as}$,57.7
5,RNA1{r(A)p.r(A)p.r(U)p.r(G)p.r(U)p.r(U)p.r(G)p.r(G)p.r(C)p.r(U)p.r(A)p.r(C)p.r(A)p.r(A)p.r(U)p.r(C)p.r(C)p.r(G)p.r(U)p.d(T)p.d(T)}|RNA2{r(A)p.r(C)p.r(G)p.r(G)p.r(A)p.r(U)p.r(U)p.r(G)p.r(U)p.r(A)p.r(G)p.r(C)p.r(C)p.r(A)p.r(A)p.r(C)p.r(A)p.r(U)p.r(U)p.d(T)p.d(G)}$$$RNA1{StrandType:ss}|RNA2{StrandType:as}$,90.9
6,RNA1{r(A)p.r(C)p.r(A)p.r(C)p.r(G)p.r(G)p.r(A)p.r(G)p.r(C)p.r(C)p.r(A)p.r(G)p.r(G)p.r(A)p.r(G)p.r(A)p.r(C)p.r(U)p.r(C)p.d(T)p.d(T)}|RNA2{r(G)p.r(A)p.r(G)p.r(U)p.r(C)p.r(U)p.r(C)p.r(C)p.r(U)p.r(G)p.r(G)p.r(C)p.r(U)p.r(C)p.r(C)p.r(G)p.r(U)p.r(G)p.r(U)p.d(A)p.d(G)}$$$RNA1{StrandType:ss}|RNA2{StrandType:as}$,48.8
7,RNA1{r(A)p.r(C)p.r(C)p.r(C)p.r(C)p.r(A)p.r(G)p.r(C)p.r(A)p.r(A)p.r(A)p.r(C)p.r(A)p.r(C)p.r(A)p.r(U)p.r(U)p.r(A)p.r(U)p.d(T)p.d(T)}|RNA2{r(A)p.r(U)p.r(A)p.r(A)p.r(U)p.r(G)p.r(U)p.r(G)p.r(U)p.r(U)p.r(U)p.r(G)p.r(C)p.r(U)p.r(G)p.r(G)p.r(G)p.r(G)p.r(U)p.d(T)p.d(G)}$$$RNA1{StrandType:ss}|RNA2{StrandType:as}$,63.4
8,RNA1{r(A)p.r(G)p.r(A)p.r(A)p.r(U)p.r(G)p.r(A)p.r(G)p.r(C)p.r(U)p.r(G)p.r(G)p.r(A)p.r(G)p.r(G)p.r(G)p.r(C)p.r(U)p.r(G)p.d(T)p.d(T)}|RNA2{r(C)p.r(A)p.r(G)p.r(C)p.r(C)p.r(C)p.r(U)p.r(C)p.r(C)p.r(A)p.r(G)p.r(C)p.r(U)p.r(C)p.r(A)p.r(U)p.r(U)p.r(C)p.r(U)p.d(T)p.d(A)}$$$RNA1{StrandType:ss}|RNA2{StrandType:as}$,75.3

# Molecular target: UBE2J1
# Experiment: reporter assay of Huesken 2005
# Details: siRNA
row,Substance,normalised inhibition (eCFP-eYFP dual reporter) [%]
1,sense rGrGrArGrArGrGrGrArGrCrCrArUrArGrGrUrUdTdT / antisense rArArCrCrUrArUrGrGrCrUrCrCrCrUrCrUrCrCdTdT,61
2,sense rGrUrUrGrCrCrUrUrUrArArArArUrCrUrGrGrAdTdT / antisense rUrCrCrArGrArUrUrUrUrArArArGrGrCrArArCdAdG,55.2
3,sense rGrUrUrUrGrArGrCrArUrCrUrCrArGrGrCrCrAdTdT / antisense rUrGrGrCrCrUrGrArGrArUrGrCrUrCrArArArCdAdG,72.6
4,sense rUrArArCrGrGrCrUrArArUrGrGrUrCrGrArUrUdTdT / antisense rArArUrCrGrArCrCrArUrUrArGrCrCrGrUrUrAdGdG,84
5,sense rUrArArUrGrGrUrCrGrArUrUrUrGrArArGrUrGdTdT / antisense rCrArCrUrUrCrArArArUrCrGrArCrCrArUrUrAdGdC,46.3
6,sense rUrArUrCrUrGrGrCrArArArCrGrArArUrArCrAdTdT / antisense rUrGrUrArUrUrCrGrUrUrUrGrCrCrArGrArUrAdTdA,91.6
7,sense rUrCrArUrCrArArCrCrUrArCrCrCrArArCrCrUdTdT / antisense rArGrGrUrUrGrGrGrUrArGrGrUrUrGrArUrGrAdAdA,47.9
8,sense rUrCrUrGrUrUrUrGrArGrCrArUrCrUrCrArGrGdTdT / antisense rCrCrUrGrArGrArUrGrCrUrCrArArArCrArGrAdTdT,56
9,sense rUrGrCrCrArArCrArArArArGrGrArGrArGrGrGdTdT / antisense rCrCrCrUrCrUrCrCrUrUrUrUrGrUrUrGrGrCrAdTdA,28.7
10,sense rUrGrGrCrArArArCrGrArArUrArCrArUrArUrUdTdT / antisense rArArUrArUrGrUrArUrUrCrGrUrUrUrGrCrCrAdGdA,110
11,sense rUrGrGrUrGrGrGrUrCrArGrCrUrGrUrArCrUrGdTdT / antisense rCrArGrUrArCrArGrCrUrGrArCrCrCrArCrCrAdTdG,83.4
12,sense rUrGrUrCrUrArCrUrUrCrArCrCrArGrArUrGrUdTdT / antisense rArCrArUrCrUrGrGrUrGrArArGrUrArGrArCrAdAdC,73.1
13,sense rUrUrCrArCrUrArArCrUrGrArUrUrUrArCrArAdTdT / antisense rUrUrGrUrArArArUrCrArGrUrUrArGrUrGrArAdAdA,67.5
14,sense rUrUrCrCrArGrGrGrUrGrCrUrArCrGrGrCrCrAdTdT / antisense rUrGrGrCrCrGrUrArGrCrArCrCrCrUrGrGrArAdTdG,75.1
15,sense rUrUrGrCrCrUrUrUrArArArArUrCrUrGrGrArAdTdT / antisense rUrUrCrCrArGrArUrUrUrUrArArArGrGrCrArAdCdA,70.5
16,sense rUrUrUrArUrCrArCrGrGrGrCrGrGrArUrArGrUdTdT / antisense rArCrUrArUrCrCrGrCrCrCrGrUrGrArUrArArAdCdT,51.8
